In patent US9333193B2, “Compositions and methods for treating tuberculosis” (priority 2010, dated 2016):
Values after ≈ are worked out from the molar mass of the structure shown. Like-named read-outs stand apart in the source and are kept apart here.

What was measured:
[1] = tested on: M. tuberculosis; assay: microbe, parasite or virus in culture; assay type: cell-based, Mycobacterium tuberculosis; set-up: % Inhibit growth, H37Rv / % Inhibit growth, Susceptible / % Inhibit growth, MDR / % Inhibit growth, XDR / inhibition: dose or concentration left out as unconfirmed; conditions: for inhibition: Mycobacterium tuberculosis; for % Inhibit growth, MDR: MDR strain; for % Inhibit growth, Susceptible: Susceptible strain; for % Inhibit growth, XDR: XDR strain; for % Inhibit growth, H37Rv: strain H37Rv
[2] = tested on: Mycobacterium smegmatis mc2155; assay: Anti-mycobacterial activity of nitazoxanides, MIC in Middlebrook 7H9; assay type: cell-based; conditions: Middlebrook 7H9, 37° C.; for MIC: Mycolicibacterium smegmatis, MC2155, read-out: Minimal Inhibitory Concentration, M. smegmatis
Experimental: (§1) (1) Strains: Mycobacterium smegmatis mc2155, Mycobacterium chelonae EOP-1, Mycobacterium marinum ATCC 927, Mycobacterium avium Va14(T), and Mycobacterium abscessus AAy-P-1).
(§2) (2) Medium: Middlebrook 7H9 containing 0.5% (vol/vol) glycerol and 10% (vol/vol) oleic acid-albumin.
(§3) (3) Incubation Temperature: 37° C., except M. marinum 30° C.
(§4) (4) Nitazoxanides: Precipitates were present in wells of nitazoxanides with high concentrations (250-31 μg/mL) except for 162080, 162088, 16b2026, and 16b2031.
(5) Decolorization: Almost all the yellow nitazoxanides, namely 16b1090, 16b1092 and 16b1093, 16b1094, 16b2023, 16b2025, and 16b2026 were decolorized by M. smegmatis strain mc2155. None of the other mycobacterial strains decolorized the compounds. Note that the compound numbers are also referred to herein with the prefix VPC.
(§5) The strains used were Mycobacterium smegmatis mc2155, Mycobacterium chelonae EOP-1, Mycobacterium marinum ATCC 927, Mycobacterium avium Va14(T), and Mycobacterium abscessus AAy-P-1. The medium use was Middlebrook 7H9 containing 0.5% (vol/vol) glycerol and 10% (vol/vol) oleic acid-albumin. Incubation Temperature was 37° C., except for M. marinum at 30° C. For nitazoxanides, precipitates were present in wells of nitazoxanides with high concentrations (250-31 μg/mL) except for 162080, 162088, 16b2026, and 16b2031.
Decolorization: Almost all the yellow nitazoxanides, namely 16b1090, 16b1092 and 16b1093, 16b1094, 16b2023, 16b2025, and 16b2026 were decolorized by M. smegmatis strain mc2155. None of the other mycobacterial strains decolorized the compounds.

[3] = tested on: Mycobacterium abscessus AAy-P-1; assay: as above; assay type: cell-based; conditions: Middlebrook 7H9, 37° C.; for MIC: Mycobacteroides abscessus, AAYP1, read-out: Minimal Inhibitory Concentration, M. abscessus
Experimental: as §1, §2, §3, §4, §5

[4] = tested on: Mycobacterium avium Va14(T); assay: as above; assay type: cell-based; conditions: Middlebrook 7H9, 37° C.; for MIC: Mycobacterium avium, read-out: Minimal Inhibitory Concentration, M. avium
Experimental: as §1, §2, §3, §4, §5

[5] = tested on: Mycobacterium chelonae EOP-1; assay: as above; assay type: cell-based; conditions: Middlebrook 7H9, 37° C.; for MIC: read-out: Minimal Inhibitory Concentration, M. chelonae
Experimental: as §1, §2, §3, §4, §5

[6] = tested on: Mycobacterium marinum ATCC 927; assay: as above; assay type: cell-based; conditions: Middlebrook 7H9, 30° C.; for MIC: Mycobacterium marinum, ATCC927, read-out: Minimal Inhibitory Concentration, M. marinum
Experimental: as §1, §2, §3, §4, §5

[7] = tested on: Mycobacterium tuberculosis; conditions: agar proportion
[8] = tested on: Mycobacterium tuberculosis; assay: microbe, parasite or virus in culture; conditions: agar proportion
[9] = read-out: % Inhibit growth, MDR
[10] = read-out: % Inhibit growth, XDR
[11] = H37RV, isolate H37Rv (Reference)

SMILES: O=C(Nc1nc(Cl)c([N+](=O)[O-])s1)c1cccc(C(F)(F)F)c1 [VPC162088]
- inhibition [1, 9]: 90%
- inhibition [1, 10]: 70%
- MIC [2]: 31 µg/mL (≈ 88.1 µM)
- MIC [3]: 0.5 µg/mL (≈ 1.42 µM)
- MIC [4]: 250 µg/mL (≈ 711 µM)
- MIC [5]: 63 µg/mL (≈ 179 µM)
- MIC [6]: 31 µg/mL (≈ 88.1 µM)

SMILES: O=C(Nc1sc([N+](=O)[O-])cc1[N+](=O)[O-])c1cccs1 [VPC16b1093, N-(3,5-Dinitrothiophen-2-yl)thiophene-2-carboxamide]
- inhibition [1, 9]: 100%
- inhibition [1, 10]: 100%
- MIC [2]: 125 µg/mL (≈ 418 µM)
- MIC [3]: 1 µg/mL (≈ 3.34 µM)
- MIC [4]: 31 µg/mL (≈ 104 µM)
- MIC [5]: 2 µg/mL (≈ 6.68 µM)
- MIC [6]: 31 µg/mL (≈ 104 µM)

SMILES: NCCOc1ccccc1C(=O)Nc1sc([N+](=O)[O-])cc1[N+](=O)[O-] [VPC16b2031, 2-(2-Aminoethoxy)-N-(3,5-dinitrothiophen-2-yl)benzamide]
- MIC [2]: 63 µg/mL (≈ 179 µM)
- MIC [3]: 250 µg/mL (≈ 710 µM)
- MIC [4]: 63 µg/mL (≈ 179 µM)
- MIC [5]: 125 µg/mL (≈ 355 µM)
- MIC [6]: 16 µg/mL (≈ 45.4 µM)

SMILES: O=C(Nc1sc([N+](=O)[O-])cc1[N+](=O)[O-])c1cccc(C(F)(F)F)c1 [VPC16b1092]
- % Inhibit growth, MDR ([1]; agar proportion method): 100%
- % Inhibit growth, Susceptible ([1]; agar proportion method): 100%
- % Inhibit growth, XDR ([1]; agar proportion method): 100%
- Potency against M. tuberculosis in words (Table 1) ([1]; agar proportion method): most potent
- % Inhibit growth, H37Rv ([1]; agar proportion method): 100%
- Minimal Inhibitory Concentration, M. smegmatis [2]: 31 µg/mL
- Minimal Inhibitory Concentration, M. abscessus [3]: 0.25 µg/mL
- Minimal Inhibitory Concentration, M. avium [4]: 8 µg/mL
- Minimal Inhibitory Concentration, M. chelonae [5]: 4 µg/mL
- Minimal Inhibitory Concentration, M. marinum [6]: 4 µg/mL
- MIC ([7]; isolate 234 (MDR-TB)): 2 mg/mL (≈ 5540 µM)
- MIC ([7]; isolate 283 (susceptible)): 2 mg/mL (≈ 5540 µM)
- MIC ([7]; isolate 565 (MDR-TB)): 2 mg/mL (≈ 5540 µM)
- MIC ([7]; isolate 694 (MDR-TB)): 1 mg/mL (≈ 2770 µM)
- MIC ([7]; isolate 750 (MDR-TB)): 2 mg/mL (≈ 5540 µM)
- MIC ([7]; isolate 823 (XDR-TB)): 2 mg/mL (≈ 5540 µM)
- MIC ([7]; isolate 971 (MDR-TB)): 2 mg/mL (≈ 5540 µM)
- MIC ([7]; isolate H37Rv (Reference)): 2 mg/mL (≈ 5540 µM)

SMILES: NNC(=O)c1ccncc1 [Isoniazid, reference compound]
- MIC [8, 11]: ≤ 125 µg/mL
- MIC ([8]; isolate 234 (MDR-TB)): 16000 µg/mL (≈ 117000 µM)
- MIC ([8]; isolate 283 (susceptible)): ≤ 125 µg/mL
- MIC ([8]; isolate 565 (MDR-TB)): 8000 µg/mL (≈ 58300 µM)
- MIC ([8]; isolate 694 (MDR-TB)): 16000 µg/mL (≈ 117000 µM)
- MIC ([8]; isolate 750 (MDR-TB)): 8000 µg/mL (≈ 58300 µM)
- MIC ([8]; isolate 823 (XDR-TB)): 8000 µg/mL (≈ 58300 µM)
- MIC ([8]; isolate 971 (MDR-TB)): 4000 µg/mL (≈ 29200 µM)

SMILES: O=C(Nc1sc([N+](=O)[O-])cc1[N+](=O)[O-])c1cc(C(F)(F)F)ccc1Cl [VPC16b2026, 2-Chloro-N-(3,5-dinitrothiophen-2-yl)-5-(trifluoromethyl)benzamide]
- MIC [2]: 31 µg/mL (≈ 78.3 µM)
- MIC [3]: 0.25 µg/mL (≈ 0.632 µM)
- MIC [4]: 16 µg/mL (≈ 40.4 µM)
- MIC [5]: 4 µg/mL (≈ 10.1 µM)
- MIC [6]: 8 µg/mL (≈ 20.2 µM)

SMILES: CCCCCC(=O)Nc1nc(Cl)c([N+](=O)[O-])s1 [VPC162080]
- % Inhibit growth, MDR ([1]; agar proportion method): 95%
- % Inhibit growth, Susceptible ([1]; agar proportion method): 73%
- % Inhibit growth, XDR ([1]; agar proportion method): 90%
- % Inhibit growth, H37Rv ([1]; agar proportion method): 90%
- Minimal Inhibitory Concentration, M. smegmatis [2]: 125 µg/mL
- Minimal Inhibitory Concentration, M. abscessus [3]: 0.25 µg/mL
- Minimal Inhibitory Concentration, M. avium [4]: 125 µg/mL
- Minimal Inhibitory Concentration, M. chelonae [5]: 16 µg/mL
- Minimal Inhibitory Concentration, M. marinum [6]: 16 µg/mL

SMILES: O=C(Nc1ncc([N+](=O)[O-])s1)c1cccc(C(F)(F)F)c1 [VPC161183, N-(5-Nitrothiazol-2-yl)-3-(trifluoromethyl)benzamide]
- inhibition [1, 9]: 70%
- inhibition [1, 10]: 50%

SMILES: CO[C@H]1/C=C/O[C@@]2(C)Oc3c(C)c(O)c4c(O)c(c(/C=N/N5CCN(C)CC5)c(O)c4c3C2=O)NC(=O)/C(C)=C\C=C\[C@H](C)[C@H](O)[C@@H](C)[C@@H](O)[C@@H](C)[C@H](OC(C)=O)[C@@H]1C [Rifampin, reference compound]
- MIC [8, 11]: ≤ 125 µg/mL
- MIC ([8]; isolate 234 (MDR-TB)): 16000 µg/mL (≈ 19400 µM)
- MIC ([8]; isolate 283 (susceptible)): ≤ 125 µg/mL
- MIC ([8]; isolate 565 (MDR-TB)): ≥ 32000 µg/mL
- MIC ([8]; isolate 694 (MDR-TB)): ≥ 32000 µg/mL
- MIC ([8]; isolate 750 (MDR-TB)): ≥ 32000 µg/mL
- MIC ([8]; isolate 823 (XDR-TB)): ≥ 32000 µg/mL
- MIC ([8]; isolate 971 (MDR-TB)): ≥ 32000 µg/mL
